Measurements as given in patent publication US7335635B2, “14-3-3 binding molecules as sensitizers for anticancer therapies” (Emory University, priority 2001, dated 2008).

How the values were obtained:
[1] = test system: 14-3-3; details: phosphorylation-independent interaction; cited from earlier work
[2] = target: T1, 14-3-3ζ/ASK1 (Bos taurus, UniProt P63103); assay: Peptide inhibition of [35S]-ASK1 binding to immobilized His-14-3-3ζ; details: FIG. 1
T1 sequence (P63103 1-245): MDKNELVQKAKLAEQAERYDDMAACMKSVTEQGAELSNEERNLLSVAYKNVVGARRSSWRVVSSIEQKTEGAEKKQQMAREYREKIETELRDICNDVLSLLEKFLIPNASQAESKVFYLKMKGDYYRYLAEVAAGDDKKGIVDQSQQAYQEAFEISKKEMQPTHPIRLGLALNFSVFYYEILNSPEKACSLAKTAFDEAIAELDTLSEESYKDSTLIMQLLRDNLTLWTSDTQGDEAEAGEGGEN
Experimental: To determine the effectiveness of various 14-3-3 antagonist, including R18, S-Raf259, and pS-Raf-259, the peptide antagonists were preincubated with immobilized His-14-3-3ζ before adding [^35S]-labeled ASK1. After washing, 14-3-3-bound ASK1 was quantified by PhosphorImager. The percentage of ASK1 bound to 14-3-3 relative to peptide-free samples is plotted against increasing concentration of the test peptides (FIG. 1).

[3] = target: T2, 14-3-3ζ dimer (Bos taurus, UniProt P63103); assay: R18-Sepharose bead competition with Bad derived phosphopeptides for 14-3-3 binding; details: 100 nM 14-3-3ζ dimer; FIG. 2
T2 sequence (P63103 1-245): T1 sequence (P63103 1-245)
Experimental: R18 was covalently coupled to Sepharose beads. The beads were then incubated with 100 nM 14-3-3ζ dimer along with the indicated concentrations of synthetic phosphopeptides derived from Bad. pS136 contains a 14-3-3 binding site, while pS112 is a similar peptide incapable of binding 14-3-3. Unbound 14-3-3 was washed away from the beads and the remaining proteins were visualized by SDS-PAGE and sliver staining. […] See also, Masters et al. (2001) Molecular Pharmacology 60: 1325-1331, herein incorporated by reference.

[4] = test system: COS-7 cells; assay: Attachment based viability assay (lacZ marker, β-gal activity); assay type: cell-based; details: expression from transfected vector, FIG. 4, FIG. 8a
Experimental: R18 is placed under the control of the CMV promoter in a mammalian expression vector pCR3.1 (pSCM110). Cells expressing the control pcDNA3 along with a lacZ marker gave high β-gal activity that was set as 100% survival. […] The R18 effect was dose-dependent because increased R18 expression was correlated with decreased cell viability.
In FIG. 8a, Cos-7 cells were co-transfected with myc-tagged difopein or a control vector along with a lacZ reported gene. After approximately 48 hours floating cells were gently washed away and attached cells were lysed and assayed for β-galactosidase.

[5] = test system: COS-7 cells; assay: DNA content (sub G0) by propidium iodide flow cytometry; assay type: cell-based; details: for cell death (fraction of cells with sub G0 DNA content): 24 hours after transfection, FIG. 5
Experimental: The two acidic residues of R18 (Asp and Glu) which are involved in coordinating the basic cluster of 14-3-3 were changed to lysine. This peptide is not expected to bind 14-3-3, but it could retain interaction with other cellular partners if they do exist. Cos-7 cells were cotransfected with a farnesylated (EGFP[)] marker along with EYFP, EYFP-R18, or EYFP-R18 (D12K,E14K). After 24 hours, cells were fixed in ethanol and DNA was stained with propidium iodide. EGFP and PI signal intensities were measured on a FACScan flow cytometer (Becton Dickinson), and transfected cells were placed in various phases of the cell cycle based on their DNA content.
In yet another assay, (FIG. 8c) Cos-7 cells were transfected with EYFP or EYFP-difopein as indicated, and cell death was determined as in FIG. 5. Internucleosomal DNA cleavage, which is a commonly used marker of apoptosis, produces small fragments that can diffuse out of cells during ethanol fixation resulting in decreased signals being seen on staining for DNA (Sub-G0 DNA content). Therefore, the appearance of cell containing sub G0 levels of DNA indicates apoptotic cell death.

[6] = test system: COS-7 cells; assay: Cisplatin-induced cell death with R18 expression, viability assay; assay type: cell-based; details: myc-tagged R18, cisplatin added 12 hours after transfection, read about 36 hours later; FIG. 11a
Experimental: (§1) Inhibition of 14-3-3/ligand interactions may facilitate apoptotic cell death induced by cytotoxic agents. To test this possibility, the effects of expression of R18 and difopein on cisplatin-induced cell death was examined (FIG. 11). In FIG. 11a, Cos-7 cells were transfected with a lacZ marker gene along with myc-tagged R18 DNA (amount used shown as the fraction of total DNA). 12 hours after transfection, the indicated concentrations of cisplatin were added. Approximately 36 hours later the viability of the cells was determined as in FIG. 3 above. In FIG. 11b, HeLa cervical cancer cells were transfected with EYFP or EYFP-difopein as indicated. 24 hours later, 50 μM cisplatin or vehicle was added. After 24 hours of cisplatin treatment, the cells were assayed as in 2 above.

[7] = test system: COS-7 cells; assay: Annexin V phenotype of R18 induced cell death; assay type: cell-based; details: data not shown
[8] = test system: 14-3-3 proteins; details: cited from earlier work
[9] = test system: caspase 3; assay: Caspase 3 activity in cell lysates (pNA release from Ac-DEVD-pNA); assay type: cell-based; details: FIG. 10a
Experimental: Cos-7 cells were lysed 12 hours after transfection with various amounts of DNA coding for EYFP-difopein. Equal amounts of lysates were assayed for the ability to liberate p-nitroaniline (pNA) from the caspase 3 substrate Ac-DEVD-pNA. […] In another study, Cos-7 cells were assayed as in FIG. 5, except that they were treated with 50 μM of the pan-caspase inhibitor zVAD-fink or vehicle immediately prior to transfection (FIG. 10b).

[10] = target: T3, 14-3-3ζ/Raf-1 (Bos taurus, UniProt P63103); assay: Co-immunoprecipitation of FLAG-14-3-3ζ and endogenous Raf-1 in transfected HEK293 cells; assay type: cell-based; details: FIG. 3
T3 sequence (P63103 1-245): T1 sequence (P63103 1-245)
Text: Difopein is a 62 amino acid polypeptide having 14-3-3 antagonist activity. The amino acid sequence of difopein is shown in SEQ ID NO:2 and comprises two R18 monomers (amino acids 6-25 and 37-56 of SEQ ID NO:2) separated by non-repeat linker sequences (amino acids 26-36 of SEQ ID NO:2). […] Specifically, HEK293 cells were transfected with DNA coding for FLAG-tagged 14-3-3ζ and either EYFP or EYFP-difopein as indicated. 14-3-3 was immunoprecipitated using anti-FLAG (M2; Sigma Chemical Co.). In the presence of EYFP, 14-3-3ζ was able to co-precipitate endogenous Raf-1. […] See also, Masters et al. (2001) Journal of Biological Chemistry 276: 45193-45200, herein incorporated by reference.

[11] = test system: HeLa cervical cancer cells; assay: Cisplatin-induced cell death with EYFP-difopein expression; assay type: cell-based; details: 50 μM cisplatin for 24 hours, FIG. 11b
Experimental: as §1

[12] = test system: COS-7 cells; assay: Viability by microscopic examination of morphology of X-gal stained transfected cells; assay type: cell-based; details: about 24 hours post transfection; FIG. 8b
Experimental: In another assay, Cos-7 cells were cotransfected with a lacZ marker in addition to any EYFP-difopein fusion, EYFP alone, or empty vector. Approximately 24 hours post transfection, cells were fixed and transfected cells were identified by staining with X-gal. Viability of the transfected cells was determined by microscopic examination of cell morphology: live cells were flat, while dead cells were rounded up.

Molecule: Pseudomonas aeruginosa exoenzyme S: exoenzyme S from Pseudomonas aeruginosa, a phosphorylation-independent 14-3-3 ligand
- affinity for the amphipathic groove of 14-3-3 [1]: high affinity

Molecule: PHCVPRDLSWLDLEANMCLP [R18]
- inhibitory effect on 14-3-3ζ/ASK1 compared with pS-Raf-259 [2]: stronger inhibitory affect
- inhibition of the interaction of 14-3-3ζ with ASK1 ([2]; peptide preincubated with immobilized His-14-3-3ζ): potent inhibitory affect
- competition with Bad derived peptide for 14-3-3 binding [3]: competes with a Bad derived peptide for 14-3-3 binding
- cell viability (β-gal activity) [4]: drastically decreased the population of viable cells
- cell death (fraction of cells with sub G0 DNA content) [5]: increase in the fraction of cells containing less than normal amounts of DNA
- enhancement of cisplatin-induced cell death [6]: enhance the ability of an antineoplastic drug to kill cells
- annexin V phenotype [7]: annexin V-positive phenotype
- specificity for 14-3-3 proteins [8]: high specificity
- Kd ([8]; different isoforms of 14-3-3, similar affinity): 80 nM

Molecule: R18 (D12K, E14K): R18 with the two acidic residues (Asp and Glu) that coordinate the basic cluster of 14-3-3 changed to lysine (PHCVPRDLSWLKLKANMCLP; left off: large carriers)
- cell death (fraction of cells with sub G0 DNA content) [5]: unable to induce cell death

Molecule: Ac-DEVD-CHO [reference compound]
- block of EYFP-difopein induced pNA release ([9]; Cos-7 lysates): completely blocked

B1: difopein: 62 amino acid polypeptide comprising two R18 monomers separated by a non-repeat linker sequence (protein)
chain: SADGAPHCVPRDLSWLDLEANMCLPGAAGLDSADGAPHCVPRDLSWLDLEANMCLPGAAGLE
modifications: difopein polypeptide sequence
- binding to 14-3-3 in vivo [10]: can bind 14-3-3 in vivo
- cell viability (β-gal activity) [4]: decreased β-gal activity
- cell death compared with monomeric R18 ([5]; EYFP-tagged constructs, FIG. 7): dramatically enhanced the cell death
- effect on the cell cycle (DNA content distribution, sub G0 cells excluded) ([5]; FIG. 8c, not shown): does not disrupt the cell cycle
- sensitivity of induced cell death to constitutively active Akt ([5]; co-expression of constitutively active Akt, FIG. 9): relatively insensitive to Akt expression
- enhancement of cisplatin-induced cell death [11]: enhance the ability of an antineoplastic drug to kill cells

B2: EYFP-difopein: EYFP-difopein fusion expressed from transfected DNA (protein)
chain: B1 chain
modifications: left off: large carriers
notes: EYFP-difopein fusion expressed from transfected DNA
- co-precipitation of endogenous Raf-1 with 14-3-3ζ ([10]; anti-FLAG immunoprecipitation): blocked co-precipitation of Raf-1
- reduction of the live cell population [12]: about one-half
- pNA release from caspase 3 substrate Ac-DEVD-pNA ([9]; Cos-7 lysates 12 hours after transfection): dose dependent increase in pNA release
